Results taken from patent US4146719A, “Piperazinyl derivatives of quinoline carboxylic acids” (priority 1977, dated 1979).
≈ marks a conversion by molar mass, not a printed value. Where two headings read alike, the source gives them in different places.

Experiments:
My. smegmatis IFO 3083 = assay: Antibacterial activity in vitro, M.I.C., agar dilution streak method; type: cell-based; details: Mycolicibacterium smegmatis, IFO3083
[1] = tested on: Staphylococcus aureus 209P; assay: as above; type: cell-based; details: Staphylococcus aureus, 209P
Ps. aeruginosa IID 1210 = assay: as above; type: cell-based, Pseudomonas aeruginosa; details: Pseudomonas aeruginosa, IID1210
Ps. aeruginosa IID 1130 = assay: as above; type: cell-based, Pseudomonas aeruginosa; details: Pseudomonas aeruginosa, IID1130
[2] = tested on: Pseudomonas aeruginosa IID 1210; assay: Preventive effect against systemic infection with Pseudomonas aeruginosa in mice; type: in vivo, Pseudomonas aeruginosa; mice (ddY, male); details: Pseudomonas aeruginosa, subcutaneous, challenge 3.5 × 10^4 cells/mouse
Experimental: Systemic infection was produced by inoculating male mice (strain: ddY, 6 weeks old, body weight: 28-33g) in intraperitoneally with Pseudomonas aeruginosa IID 1210 suspended in 0.5 ml of Brain heart infusion broth (Eiken) containing 5% mucin. […] Each of these test materials was administered to the mice twice, immediately after and then 6 hours after the inoculation, and the therapeutic effect of each compounds was judged from the survival rate.
(1) Miller L. C. and M. L. Tainter: Estimation of the ED50 and its error by means of logarithmic-probit graph paper Proc. Soc. Exp. Biol. Med. 57 261-264 (1944)
(2) Litchfield J. T. and F. Wilcoxon: A simplified method of evaluating dose - effect J. Pharmacol. 92 99-113 (1948)

Str. faecalis IID 682 = assay: Antibacterial activity in vitro, M.I.C., agar dilution streak method; type: cell-based; details: Enterococcus faecalis, IID682; Gram +
Sta. aureus ATCC 14775 = assay: as above; type: cell-based, Staphylococcus aureus; details: Staphylococcus aureus, ATCC14775
Str. pyogenes S-8 = assay: as above; type: cell-based, Streptococcus pyogenes; details: Streptococcus pyogenes, S8
[3] = tested on: Streptococcus pyogenes IID 692; assay: as above; type: cell-based; details: Streptococcus pyogenes, IID692
[4] = tested on: Klebsiella pneumoniae IFO 3512; assay: as above; type: cell-based; details: Klebsiella pneumoniae, IFO3512
[5] = tested on: Mycobacterium phlei IFO 3142; assay: as above; type: cell-based; details: Mycolicibacterium phlei, IFO3142
Ps. aeruginosa IFO 12689 = assay: as above; type: cell-based, Pseudomonas aeruginosa; details: Pseudomonas aeruginosa, IFO12689
[6] = tested on: Diplococcus pneumoniae IID 552; assay: as above; type: cell-based; details: Streptococcus pneumoniae, IID552
E. coli ATCC 10536 = assay: as above; type: cell-based, Escherichia coli; details: Escherichia coli, ATCC10536
[7] = tested on: Haemophilus influenzae IID 986; assay: as above; type: cell-based; details: Haemophilus influenzae, IID986
Escherichia coli NIHJ = assay: as above; type: cell-based; details: Escherichia coli
[8] = tested on: Proteus vulgaris IFO 3167; assay: as above; type: cell-based; details: Proteus vulgaris, IFO3167
[9] = tested on: Bacillus subtilis PCI 219; assay: as above; type: cell-based; details: Bacillus subtilis, PCI219
Pr. vulgaris XK Denken = assay: as above; type: cell-based, Proteus vulgaris; details: Proteus vulgaris
Shigella sonnei IID 969 = assay: as above; type: cell-based; details: Shigella sonnei, IID969; Gram -
[10] = tested on: Pseudomonas aeruginosa V-1; assay: as above; type: cell-based; details: Pseudomonas aeruginosa, V1
[11] = tested on: Corynebacterium pyogenes IID 548; assay: as above; type: cell-based; details: Corynebacterium pyogenes, IID548; Gram +
[12] = tested on: Salmonella enteritidis IID 604; assay: as above; type: cell-based; details: Salmonella enterica
[13] = tested on: Neisseria perflava IID 856; assay: as above; type: cell-based; details: Neisseria perflava, IID856
[14] = tested on: Escherichia coli NIHJ JC-2; assay: Preventive effect against ascending kidney infection in mice with Escherichia coli; type: in vivo, Escherichia coli; mice (ddY, female); details: Escherichia coli
Experimental: Ascending kidney infection was induced in female mice (strain: ddY, 6 weeks old, body weight: 22-26g), by instilling Escherlichia coli NIHJ JC-2 suspended in 0.04 ml of Tryptosoya broth (Nissan) into the urinary tract of mice anesthetized with sodium pentobarbital and by holding for 6 hours the mice in plastic tubes (diameter 25 mm) and clamping the outlet of urinary tract.
Each of these test material was orally administered 3 hours after inoculation. Mice were sacrificed 48 hours after inoculation. Kidneys were removed aseptically and bisected, and the two halves were pressed and streaked on agar plate containing Desoxycholate medium (Nissan). The therapeutic effect of each compound was evaluated from the absence of growth on the agar surface after 20 hours of incubation at 37° C.

Escherichia coli = assay: Concentration ratio in serum to M.I.C. after oral administration of 50 mg/kg in rats; type: in vivo, Escherichia coli; rats; details: rat, 50 mg/kg oral
[15] = Chem. Abstr., 62, 15600h (1965); cited from earlier work
[16] = Chelate formation with ferric ion; type: physicochemical; details: one third molar equivalent of ferric chloride hexahydrate, water
Text: It is known that most of drugs such as Quinoform and Ethambutol which form chelates with metal ions in vivo produce undesirable side effects.

[17] = tested on: gram-positive and gram-negative bacteria including Pseudomonas aeruginosa; assay: Antibacterial spectrum in vitro (summary in words); type: cell-based
[18] = tested on: Escherichia coli NIHJ JC-2; assay: Influence of rat bile on antibacterial activity; type: cell-based; details: bile of rats
Experimental: Nutrient agar was heated and melted. […] The diameter of the inhibition zone was measured.

[19] = Biliary excretion in rats after a single oral administration of 50 mg/kg; details: in vivo, rat, 50 mg/kg oral

CC1(C)S[C@@H]2[C@H](NC(=O)C(C(=O)O)c3ccccc3)C(=O)N2[C@H]1C(=O)O (some centres unmarked) [Carbenicillin]
MIC (My. smegmatis IFO 3083; Gram +, read-out: M.I.C.): 6.25 µg/mL (≈ 16.5 µM) | MIC ([1]; Gram +, read-out: M.I.C.): 0.39 µg/mL (≈ 1.03 µM) | MIC (Ps. aeruginosa IID 1210; Gram -, read-out: M.I.C.): 100 µg/mL (≈ 264 µM) | MIC (Ps. aeruginosa IID 1130; Gram -, read-out: M.I.C.): 200 µg/mL (≈ 529 µM) | ED50 ([2]; IID1210, sc, twice (immediately and 6 hours after inoculation), read-out: ED50 (95% confidence limit)): 800 mg/kg | ED90 ([2]; IID1210, twice, read-out: ED90): 1430 mg/kg | MIC (Str. faecalis IID 682): 100 µg/mL | MIC (Sta. aureus ATCC 14775; Gram +, read-out: M.I.C.): 6.25 µg/mL (≈ 16.5 µM) | MIC (Str. pyogenes S-8; Gram +, read-out: M.I.C.): 0.1 µg/mL (≈ 0.264 µM) | MIC ([3]; Gram +, read-out: M.I.C.): 0.1 µg/mL (≈ 0.264 µM) | MIC ([4]; Gram -, read-out: M.I.C.): > 200 µg/mL | MIC ([5]; Gram +, read-out: M.I.C.): > 200 µg/mL | MIC (Ps. aeruginosa IFO 12689; Gram -, read-out: M.I.C.): 100 µg/mL (≈ 264 µM) | MIC ([6]; Gram +, read-out: M.I.C.): 0.39 µg/mL (≈ 1.03 µM) | MIC (E. coli ATCC 10536): 1.56 µg/mL (≈ 4.12 µM) | MIC ([7]; Gram -, read-out: M.I.C.): 0.39 µg/mL (≈ 1.03 µM) | MIC (Escherichia coli NIHJ): 1.56 µg/mL (≈ 4.12 µM) | MIC ([8]; Gram -, read-out: M.I.C.): 6.25 µg/mL (≈ 16.5 µM) | MIC ([9]; Gram +, read-out: M.I.C.): 0.39 µg/mL (≈ 1.03 µM) | MIC (Pr. vulgaris XK Denken; Gram -, read-out: M.I.C.): 0.39 µg/mL (≈ 1.03 µM) | MIC (Shigella sonnei IID 969): 1.56 µg/mL (≈ 4.12 µM) | MIC ([10]; Gram -, read-out: M.I.C.): 12.5 µg/mL (≈ 33 µM) | MIC [11]: 0.2 µg/mL | MIC ([12]; Gram -, read-out: M.I.C.): 12.5 µg/mL (≈ 33 µM) | MIC [13]: 1.56 µg/mL (≈ 4.12 µM)

CCn1cc(C(=O)O)c(=O)c2ccc(C)nc21 [Nalidixic acid]
MIC (My. smegmatis IFO 3083): > 100 µg/mL | ED90 ([14]; NIHJJC2, 48 h): 345 mg/kg | ED50 ([14]; NIHJJC2, po, 48 h, read-out: ED50 (95% confidence limit)): 86 mg/kg | MIC [1]: 100 µg/mL (≈ 431 µM) | MIC (Ps. aeruginosa IID 1210): > 200 µg/mL | MIC (Ps. aeruginosa IID 1130): > 200 µg/mL | MIC (Sta. aureus ATCC 14775): > 100 µg/mL | MIC (Str. pyogenes S-8): > 100 µg/mL | MIC [3]: > 100 µg/mL | MIC [4]: 1.56 µg/mL (≈ 6.72 µM) | MIC [5]: 100 µg/mL (≈ 431 µM) | MIC (Ps. aeruginosa IFO 12689): > 200 µg/mL | serum concentration / M.I.C. ratio (in words) (Escherichia coli): smaller than that of the compound (II) | MIC [6]: > 100 µg/mL | MIC (E. coli ATCC 10536): 3.13 µg/mL (≈ 13.5 µM) | chelate compound with ferric ion [15]: afforded chelate compound when treated with ferric ion | shift of absorption maxima on treatment with ferric ion ([16]; from 256 and 326 nm, NaOH): shifted to shorter wave length at 248 and 311 nm | chelate compound with ferric ion ([16]; molar equivalent of sodium hydroxide): 3:1 chelate compound of nalidixic acid and ferric ion was obtained | MIC [7]: 1.56 µg/mL (≈ 6.72 µM) | antibacterial activity (in words) [17]: inactive on many strains of gram-positive bacteria and many Pseudomonas aeruginosa strains | MIC (Escherichia coli NIHJ): 3.13 µg/mL (≈ 13.5 µM) | MIC [8]: 3.13 µg/mL (≈ 13.5 µM) | MIC [9]: 6.25 µg/mL (≈ 26.9 µM) | MIC (Pr. vulgaris XK Denken): 3.13 µg/mL (≈ 13.5 µM) | antibacterial activity in presence of bile (in words) [18]: not influenced by bile of rats | MIC (Shigella sonnei IID 969): 1.56 µg/mL (≈ 6.72 µM) | MIC [10]: 100 µg/mL (≈ 431 µM) | MIC [12]: 12.5 µg/mL (≈ 53.8 µM) | MIC [13]: 1.56 µg/mL (≈ 6.72 µM) | dose excreted at 3 h ([19]; 0-3 hours, mean ±S.E., read-out: Biliary excretion, cumulative recovery): 0.29 ± 0.03% | concentration at 3 h ([19]; 0-3 hrs., mean±S.E., read-out: Biliary level): 14700 ± 1500 ng/mL | dose excreted at 6 h ([19]; 0-6 hours, mean ±S.E., read-out: Biliary excretion, cumulative recovery): 0.56 ± 0.05% | dose excreted at 24 h ([19]; 0-24 hours, mean ±S.E., read-out: Biliary excretion, cumulative recovery): 1.33 ± 0.1% | dose excreted at 27 h ([19]; 0-27 hours, mean ±S.E., read-out: Biliary excretion, cumulative recovery): 1.33 ± 0.1% | concentration at 6 h ([19]; 3-6 hrs., mean±S.E., read-out: Biliary level): 16600 ± 2400 ng/mL | concentration at 24 h ([19]; 6-24 hrs., mean±S.E., read-out: Biliary level): 9300 ± 1600 ng/mL | concentration at 27 h ([19]; 24-27 hrs., read-out: Biliary level (not detected symbol)): < 2000 ng/mL
